From ChEMBL document CHEMBL4414602, “Bipolaricins A-I, Ophiobolin-Type Tetracyclic Sesterterpenes from a Phytopathogenic Bipolaris sp. Fungus” (J Nat Prod, 2019)
pIC50: −log10 of the molar value. Activity calls are given as the source filed them. The calls are words filed in the database; no cut-off is given here.

Key:
[1] = test system: A549; assay: Cytotoxicity against human A549 cells by MTT assay; type: cell-based
[2] = test system: SW1990; assay: Cytotoxicity against human SW1990 cells by MTT assay; type: cell-based
[3] = test system: RAW264.7; assay: Cytotoxicity against mouse RAW264.7 cells at 40 uM by MTT assay; type: cell-based; settings: raw264.7, 40 µM
[4] = test system: MDA-MB-231; assay: Cytotoxicity against human MDA-MB-231 cells by MTT assay; type: cell-based
[5] = test system: HepG2; assay: Cytotoxicity against human HepG2 cells by MTT assay; type: cell-based
[6] = test system: RAW264.7; assay: Antiinflammatory activity in mouse RAW264.7 cells assessed as inhibition of LPS-induced nitric oxide production pretreated for 2 hrs followed by LPS challenge and measured after 12 hrs by Griess assay; type: functional, cell-based
[7] = test system: RAW264.7; assay: Antiinflammatory activity in mouse RAW264.7 cells assessed as inhibition of LPS-induced RANTES production at 5 to 10 uM pretreated for 2 hrs followed by LPS challenge and measured after 12 hrs by ELISA; type: functional, cell-based
[8] = test system: RAW264.7; assay: Antiinflammatory activity in mouse RAW264.7 cells assessed as inhibition of LPS-induced TNFalpha production at 5 to 10 uM pretreated for 2 hrs followed by LPS challenge and measured after 12 hrs by ELISA; type: functional, cell-based
[9] = test system: RAW264.7; assay: Antiinflammatory activity in mouse RAW264.7 cells assessed as inhibition of LPS-induced IL-1beta production at 5 to 10 uM pretreated for 2 hrs followed by LPS challenge and measured after 12 hrs by ELISA; type: functional, cell-based
[10] = test system: RAW264.7; assay: Antiinflammatory activity in mouse RAW264.7 cells assessed as inhibition of LPS-induced MIP-1beta production at 5 to 10 uM pretreated for 2 hrs followed by LPS challenge and measured after 12 hrs by ELISA; type: functional, cell-based
[11] = test system: RAW264.7; assay: Antiinflammatory activity in mouse RAW264.7 cells assessed as increase in LPS-induced HO-1 protein level pretreated for 2 hrs followed by LPS challenge and measured after 12 hrs by Western blot analysis; type: functional, cell-based
[12] = test system: RAW264.7; assay: Antiinflammatory activity in mouse RAW264.7 cells assessed as increase of LPS-induced IL-3 production at 5 to 10 uM pretreated for 2 hrs followed by LPS challenge and measured after 12 hrs by ELISA; type: functional, cell-based
[13] = biological target: T1, 3-hydroxy-3-methylglutaryl-coenzyme A reductase (Homo sapiens, UniProt P04035); assay: Inhibition of human HMGR using HMGCoA as substrate measured after 15 mins in presence of NADPH by UV microplate reader analysis
T1 sequence (P04035 whole entry): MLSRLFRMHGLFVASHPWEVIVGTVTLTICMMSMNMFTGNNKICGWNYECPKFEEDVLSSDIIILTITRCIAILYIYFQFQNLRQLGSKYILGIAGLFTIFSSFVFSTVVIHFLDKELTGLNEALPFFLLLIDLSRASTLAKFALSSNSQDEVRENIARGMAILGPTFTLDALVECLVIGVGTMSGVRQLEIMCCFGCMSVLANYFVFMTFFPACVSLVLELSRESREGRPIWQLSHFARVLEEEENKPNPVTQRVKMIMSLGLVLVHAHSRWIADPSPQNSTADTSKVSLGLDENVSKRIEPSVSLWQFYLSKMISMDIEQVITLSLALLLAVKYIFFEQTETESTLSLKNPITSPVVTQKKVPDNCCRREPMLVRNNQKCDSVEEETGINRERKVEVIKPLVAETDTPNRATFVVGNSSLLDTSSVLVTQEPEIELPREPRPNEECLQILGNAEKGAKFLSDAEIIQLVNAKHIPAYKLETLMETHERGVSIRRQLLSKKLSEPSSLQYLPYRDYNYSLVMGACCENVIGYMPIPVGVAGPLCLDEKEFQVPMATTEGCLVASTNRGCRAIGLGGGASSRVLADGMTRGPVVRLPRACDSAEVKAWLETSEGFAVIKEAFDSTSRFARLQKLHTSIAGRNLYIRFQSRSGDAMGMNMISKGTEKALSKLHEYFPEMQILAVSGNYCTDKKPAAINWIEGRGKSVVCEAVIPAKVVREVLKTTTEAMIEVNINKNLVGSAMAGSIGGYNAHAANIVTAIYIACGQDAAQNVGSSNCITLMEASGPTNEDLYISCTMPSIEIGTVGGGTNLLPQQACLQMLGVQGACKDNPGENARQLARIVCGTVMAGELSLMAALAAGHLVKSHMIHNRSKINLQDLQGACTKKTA

[14] = biological target: Transcription factor p65 (Mus musculus) (UniProt Q04207); assay: Inhibition of LPS-induced NF-kappaB p65 translocation in mouse RAW264.7 cells at 5 to 10 uM pretreated for 2 hrs followed by LPS challenge measured after 12 hrs by DAPI staining based fluorescence microscopic analysis; type: cell-based
Transcription factor p65 (Mus musculus), sequence (Q04207 whole entry): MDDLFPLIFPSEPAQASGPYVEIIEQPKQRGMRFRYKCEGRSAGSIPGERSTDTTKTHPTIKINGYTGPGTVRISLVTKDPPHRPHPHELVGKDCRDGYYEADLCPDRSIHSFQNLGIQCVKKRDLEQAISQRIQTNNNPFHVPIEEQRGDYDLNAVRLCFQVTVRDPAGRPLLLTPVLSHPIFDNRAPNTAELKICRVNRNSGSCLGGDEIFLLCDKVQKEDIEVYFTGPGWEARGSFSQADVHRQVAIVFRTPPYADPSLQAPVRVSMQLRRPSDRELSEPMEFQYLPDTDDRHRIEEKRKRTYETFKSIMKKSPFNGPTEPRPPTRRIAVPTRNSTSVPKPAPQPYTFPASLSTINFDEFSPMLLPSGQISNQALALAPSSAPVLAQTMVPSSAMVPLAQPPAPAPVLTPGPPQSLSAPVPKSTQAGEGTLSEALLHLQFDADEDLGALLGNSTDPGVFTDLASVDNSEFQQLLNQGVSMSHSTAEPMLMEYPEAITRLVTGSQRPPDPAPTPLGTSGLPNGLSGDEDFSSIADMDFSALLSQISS

Structure (SMILES) | pIC50 [1] | pIC50 [2] | Activity [3] | pIC50 [4] | pIC50 [5] | pIC50 [6] | inhibition [7] | inhibition [8] | inhibition [9] | inhibition [10] | Activity [11] | Activity [12] | pIC50 [13] | inhibition [14]
CC(C)=C[C@H]1C[C@H](C)[C@]2(CC[C@]3(C)C[C@@H]4C(C)=CC(=O)/C4=C(\C(=O)O)[C@@H](O)C[C@H]32)O1 | < 4.40 | < 4.40 | Non-Toxic | < 4.40 | < 4.40 | < 4.40 | – | – | – | – | – | – | – | –
CC(C)=C[C@H]1C[C@H](C)[C@]2(CC[C@]3(C)C[C@H]4[C@H](CC[C@@]4(C)O)/C(CO)=C\C[C@H]32)O1 | < 4.40 | < 4.40 | Non-Toxic | < 4.40 | < 4.40 | < 4.40 | – | – | – | – | – | – | – | –
CC(C)=C[C@H]1C[C@H](C)[C@]2(CC[C@]3(C)C[C@@H]4C(C)=CC(=O)/C4=C(\CO)[C@@H](O)C[C@H]32)O1 | < 4.40 | < 4.40 | Non-Toxic | < 4.40 | < 4.40 | 5.17 | – | – | – | – | – | – | – | –
COc1ccc2c(c1)c(CC(=O)O)c(C)n2C(=O)c1ccc(Cl)cc1 [INDOMETHACIN] | – | – | – | – | – | 5.06 | – | – | – | – | – | – | – | –
CC(C)=C[C@H]1C[C@H](C)[C@]2(CC[C@]3(C)C[C@@H]4C(C)=CC(=O)[C@H]4/C(C(=O)O)=C\C[C@H]32)O1 | < 4.40 | < 4.40 | Non-Toxic | < 4.40 | < 4.40 | < 4.40 | – | – | – | – | – | – | – | –
CC1=CC(=O)/C2=C(\CO)[C@@H](O)C[C@@H]3[C@](C)(CC[C@@]34O[C@@H](/C=C(\C)CO)C[C@@H]4C)C[C@H]12 | < 4.40 | < 4.40 | Non-Toxic | < 4.40 | < 4.40 | 4.72 | – | – | – | – | – | – | – | –
CC(C)=C[C@H]1C[C@H](C)[C@]2(CC[C@]3(C)C[C@@H]4C(CO)=CC(=O)[C@H]4/C(C)=C\C[C@H]32)O1 | < 4.40 | < 4.40 | Non-Toxic | < 4.40 | < 4.40 | < 4.40 | – | – | – | – | – | – | – | –
CC1=CC(=O)[C@H]2/C(C=O)=C\C[C@@H]3[C@](C)(CC[C@@]34O[C@@H](/C=C(\C)CO)C[C@@H]4C)C[C@H]12 | < 4.40 | < 4.40 | Non-Toxic | < 4.40 | < 4.40 | 4.72 | – | – | – | – | – | – | – | –
CC1=CC(=O)[C@H]2/C(C)=C\C[C@@H]3[C@](C)(CC[C@@]34O[C@@H](/C=C(\C)CO)C[C@@H]4C)C[C@H]12 | < 4.40 | < 4.40 | Non-Toxic | < 4.40 | < 4.40 | < 4.40 | – | – | – | – | – | – | – | –
CC1=CC(=O)/C2=C(\CO)[C@H](O)C[C@@H]3[C@](C)(CC[C@@]34O[C@@H](/C=C(\C)CO)C[C@@H]4C)C[C@H]12 | < 4.40 | < 4.40 | Non-Toxic | < 4.40 | < 4.40 | < 4.40 | – | – | – | – | – | – | – | –
CC(C)=C[C@H]1C[C@H](C)[C@]2(CC[C@]3(C)C[C@@H]4C(C)=CC(=O)[C@H]4/C(C=O)=C\C[C@H]32)O1 [3-ANHYDRO-6-EPI-OPHIOBOLIN A] | < 4.40 | < 4.40 | Non-Toxic | < 4.40 | < 4.40 | 5.29 | Active | Active | Active | Active | Dose-dependent effect | Active | 5.08 | Active
CC1=CC(=O)/C2=C(\CO)CC[C@@H]3[C@](C)(CC[C@@]34O[C@@H](/C=C(\C)CO)C[C@@H]4C)C[C@H]12 | < 4.40 | < 4.40 | Non-Toxic | < 4.40 | < 4.40 | < 4.40 | – | – | – | – | – | – | – | –
CC(C)=C[C@H]1C[C@H](C)[C@]2(CC[C@]3(C)C[C@@H]4C(C)=CC(=O)/C4=C(\CO)[C@H](O)C[C@H]32)O1 | < 4.40 | < 4.40 | Non-Toxic | < 4.40 | < 4.40 | 4.70 | – | – | – | – | – | – | – | –
